# Test results as given in the RepoRT retention time repository.
# Assay: Waters ACQUITY UPLC BEH C18, 50 × 2.1 mm, 1.7 µm, 30 °C, 0.3 mL/min, estimated dead time 0.37 min; A: water + 0.3% formic acid; B: acetonitrile; gradient (min/%B) 0.5/5 3.5/20 5.5/25 7/57 8/90
# Conditions: stereoisomer not certain
row,Structure (SMILES),LC retention time [min]
1,CC(C)NCC(O)COc1ccc(COCCOC(C)C)cc1 (stereo unspecified),5.03
2,NC(=O)c1ncn(C2OC(CO)C(O)C2O)c1N (stereo unspecified),0.58
3,CC(C)NCC(O)COc1cccc2[nH]ccc12 (stereo unspecified),2.74
4,CCC(C(=O)OCCN1CCOC(c2ccccc2)C1C)c1ccccc1 (stereo unspecified),7.17
5,CC(C)(C)NCC(O)COc1cccc2c1CCCC2=O (stereo unspecified),4
6,COc1ccc2c3c1OC1C(O)C=CC4C(C2)N(C)CCC341 (stereo unspecified),2.15
7,CC(=O)Nc1nnc(S(N)(=O)=O)s1,1.78
8,CC=CC(=O)N(CCC)C(CC)C(=O)N(C)C (stereo unspecified),5.92
9,CN1C2CCC1C(C(=O)O)C(OC(=O)c1ccccc1)C2 (stereo unspecified),3.31
10,CC(C)(C)NCC(O)COc1cccc2c1CCC(=O)N2 (stereo unspecified),2.65
11,CN1CCC23c4c5ccc(O)c4OC2C(=O)CCC3C1C5 (stereo unspecified),1.48
12,O=C(CS(=O)C(c1ccccc1)c1ccccc1)NO (stereo unspecified),5.7
13,CCN(CC)C(=O)Nc1ccc(OCC(O)CNC(C)(C)C)c(C(C)=O)c1 (stereo unspecified),4.46
14,CNC(C)C(O)c1ccc(O)cc1 (stereo unspecified),0.65
15,CC(C)(N)Cc1ccccc1,2.91
16,CCC(=O)C(CC(C)N(C)C)(c1ccccc1)c1ccccc1 (stereo unspecified),7.03
17,COc1ccc(CC(C)NCC(O)c2ccc(O)c(NC=O)c2)cc1 (stereo unspecified),3.94
18,CC12Cc3cn[nH]c3C(O)C1CCC1C2CCC2(C)C1CCC2(C)O (stereo unspecified),6.7
19,NC(=O)CN1CC(c2ccccc2)CC1=O (stereo unspecified),3.86
20,CC(Cc1ccc(O)cc1)NCC(O)c1cc(O)cc(O)c1 (stereo unspecified),2.23
21,CC(N)Cc1ccc2c(c1)OCO2 (stereo unspecified),2.5
22,CC(C)(C)NCC(O)COc1nsnc1N1CCOCC1 (stereo unspecified),3.62
23,CC(N)CCCC(C)(C)O (stereo unspecified),1.29
24,CC12CCC(=O)C=C1CCC1C2C(O)CC2(C)C1CCC2(O)C(=O)CO (stereo unspecified),6.23
25,CNC(C)(C)Cc1ccccc1,3.14

row,Structure (SMILES),LC retention time [min]
1,Cc1cccc(Nc2ccncc2S(=O)(=O)NC(=O)NC(C)C)c1,6.02
2,CC(C)=CCN1CCC2(C)c3cc(O)ccc3CC1C2C (stereo unspecified),5.07
3,CC(C)(C)NCC(O)c1ccc(O)c(CO)c1 (stereo unspecified),1.45
4,CN1CCC23c4c5ccc(O)c4OC2C(=O)CCC3(O)C1C5 (stereo unspecified),1.21
5,O=C(O)CS(=O)C(c1ccccc1)c1ccccc1 (stereo unspecified),6.69
6,CC(C)(C)NCC(O)COc1cccc2c1CC(O)C(O)C2 (stereo unspecified),2.81
7,CC(CCc1ccccc1)NCC(O)c1ccc(O)c(C(N)=O)c1 (stereo unspecified),5.1
8,Cc1cc(C)cc(NC(=O)Cc2ccc(OC(C)(C)C(=O)O)cc2)c1,7.59
9,Cc1ccc(CC(C)N)cc1 (stereo unspecified),3.45
10,C#CC1(O)CCC2C3CCC4=CC(=O)CCC4=C3C=CC21CC (stereo unspecified),7.47
11,CC1NCCOC1c1ccccc1 (stereo unspecified),2.51
12,CC1C(c2ccccc2)OCCN1C (stereo unspecified),2.55
13,CCN(CC)C(C)C(=O)c1ccccc1 (stereo unspecified),2.73
14,CNC(C)Cc1ccccc1OC (stereo unspecified),3.3
15,OCc1cc(C(O)CNCCCCCCOCCCCc2ccccc2)ccc1O (stereo unspecified),7.12
16,Cc1cc2c(OCC(CNC(C)(C)C)OC(=O)c3ccccc3)cccc2[nH]1 (stereo unspecified),6.95
17,C#CC1(O)CCC2C3CCC4=Cc5oncc5CC4(C)C3CCC21C (stereo unspecified),8.13
18,CC12CCC3C(CCC4=CC(=O)C=CC43C)C1CCC(=O)O2 (stereo unspecified),6.56
19,CCC(=C(c1ccccc1)c1ccc(OCCN(C)C)cc1)c1ccccc1,7.76
20,CC(Cc1ccccc1)N(C)Cc1ccccc1 (stereo unspecified),5.59
21,CC(=O)OCC(=O)C12N=C(C)OC1CC1C3CCC4=CC(=O)C=CC4(C)C3C(O)CC12C (stereo unspecified),7.2
22,O=C1NC(=NC2CC2)OC1c1ccccc1 (stereo unspecified),4.84
23,CNCC(C)c1ccccc1 (stereo unspecified),2.57
24,CCCCCC(C)N (stereo unspecified),3.17
25,CC(=O)Oc1c(C)cc(OCC(O)CNC(C)C)c(C)c1C (stereo unspecified),5.62

row,Structure (SMILES),LC retention time [min]
1,CCCC(=O)Nc1ccc(OCC(O)CNC(C)C)c(C(C)=O)c1 (stereo unspecified),3.71
2,CC(Cc1ccccc1)N(C)Cc1ccco1 (stereo unspecified),4.46
3,C=CCOc1ccccc1OCC(O)CNC(C)C (stereo unspecified),4.66
4,COc1ccccc1OCCNCC(O)COc1cccc2[nH]c3ccccc3c12 (stereo unspecified),6.81
5,CC(Cc1ccccc1)[n+]1cc(N=C([O-])Nc2ccccc2)on1 (stereo unspecified),7.25
6,COCCc1ccc(OCC(O)CNC(C)C)cc1 (stereo unspecified),3.81
7,COc1ccc2c3c1OC1C(=O)CCC4(O)C(C2)N(C)CCC314 (stereo unspecified),2.47
8,COC(=O)CCc1ccc(OCC(O)CNC(C)C)cc1 (stereo unspecified),4.31
9,CC(N)Cc1ccccc1 (stereo unspecified),2.37
10,CC(C)NC1CCn2c(=O)[nH]c3cccc(c32)C1O (stereo unspecified),1.43
11,CCC1(c2ccc(N)cc2)CCC(=O)NC1=O (stereo unspecified),2.2
12,CC1(C)OC2CC3C4CCC5=CC(=O)C=CC5(C)C4C(O)CC3(C)C2(C(=O)CO)O1 (stereo unspecified),6.98
13,CC(Cc1ccccc1)NCCC#N (stereo unspecified),2.77
14,C#CCN(C)C(C)Cc1ccccc1 (stereo unspecified),3.38
15,CC1CC2C(C(O)CC3(C)C2CCC3(O)C(=O)CO)C2(C)C=CC(=O)C=C12 (stereo unspecified),6.78
16,O=C(c1ccc(OCCN2CCCCC2)cc1)c1c(-c2ccc(O)cc2)sc2cc(O)ccc12,6.58
17,CN1CCC23c4c5ccc(O)c4OC2C(O)C=CC3C1C5 (stereo unspecified),1.1
18,C=CCc1ccccc1OCC(O)CNC(C)C (stereo unspecified),5.93
19,CC(Cc1ccccc1)NC(C#N)c1ccccc1 (stereo unspecified),7.8
20,Nc1nc(N)c(-c2ccccc2)s1,1.84
21,CCC1(O)CCC2C3CCC4=CC(=O)CCC4=C3C=CC21CC (stereo unspecified),7.79
22,CCN(CC)C(=O)c1ccc(O)c(OC)c1,4.77
23,CC(CN1CCOCC1)C(C(=O)N1CCCC1)(c1ccccc1)c1ccccc1 (stereo unspecified),6.97
24,CCCC1OC2CC3C4CCC5=CC(=O)C=CC5(C)C4C(O)CC3(C)C2(C(=O)CO)O1 (stereo unspecified),7.46
25,CCC(C)CC(C)N (stereo unspecified),2.87

row,Structure (SMILES),LC retention time [min]
1,OC(c1ccccc1)(c1ccccc1)C1CCCCN1 (stereo unspecified),4.75
2,CC=CC(=O)N(CC)C(CC)C(=O)N(C)C (stereo unspecified),4.55
3,CC(C)c1c(CN(C)C(C)Cc2ccccc2)n(C)n(-c2ccccc2)c1=O (stereo unspecified),6.48
4,COC12CCC3(CC1C(C)(O)C(C)(C)C)C1Cc4ccc(O)c5c4C3(CCN1CC1CC1)C2O5 (stereo unspecified),6.55
5,CNC(C)CCC=C(C)C (stereo unspecified),3.6
6,CNC(C)Cc1ccccc1 (stereo unspecified),2.59
7,COC(=O)C(c1ccccc1)C1CCCCN1 (stereo unspecified),3.9
8,O=C1CC2OCC=C3CN4CCC56c7ccccc7N1C5C2C3CC46 (stereo unspecified),3.01
9,CC1(O)CCC2C3CCC4=CC(=O)CCC4=C3C=CC21C (stereo unspecified),7.12
10,CC(C)NCC(O)COc1ccc(CCOCC2CC2)cc1 (stereo unspecified),6.11
11,C1CCc2nnnn2CC1,2.4
12,Cc1ccccc1CC(C)N (stereo unspecified),3.25
13,COC(=O)C1CC2=CC(=O)CCC2(C)C23OC2CC2(C)C(CCC24CCC(=O)O4)C13 (stereo unspecified),6.75
14,CC12CCC(=O)C=C1CCC1C2C(=O)CC2(C)C1CCC2(O)C(=O)CO (stereo unspecified),6.31
15,CCOC(=O)C1(c2ccccc2)CCN(C)CC1,4.43
16,CCCN(CCC)S(=O)(=O)c1ccc(C(=O)O)cc1,7.56
17,CC(C(O)c1ccccc1)N(C)C (stereo unspecified),2.2
18,CCNCC(O)c1cccc(O)c1 (stereo unspecified),0.92
19,Nc1nc(N)c2nc(-c3ccccc3)c(N)nc2n1,3
20,CNC(C)Cc1ccc(O)cc1 (stereo unspecified),1.24
21,CCCC(Cc1ccccc1)N1CCCC1 (stereo unspecified),5.09
22,CCCCNc1cc(C(=O)O)cc(S(N)(=O)=O)c1Oc1ccccc1,7.49
23,CC(C)NCC(O)COc1ccc(CC(N)=O)cc1 (stereo unspecified),1.62
24,N=C1NC(=O)C(c2ccccc2)O1 (stereo unspecified),2.7
25,CC(C)(C#N)c1cc(Cn2cncn2)cc(C(C)(C)C#N)c1,6.91

row,Structure (SMILES),LC retention time [min]
1,CC(N)Cc1ccc(O)cc1 (stereo unspecified),1.17
2,NC(=O)CS(=O)C(c1ccccc1)c1ccccc1 (stereo unspecified),6.01
3,CCNC1C2CCC(C2)C1c1ccccc1 (stereo unspecified),4.97
4,C#CC1(O)CCC2C3C(C)CC4=C(CCC(=O)C4)C3CCC21C (stereo unspecified),7.51
5,CC(N)C(O)c1ccccc1 (stereo unspecified),1.7
6,CC12Cc3c([nH][nH]c3=O)CC1CCC1C2CCC2(C)C1CCC2(C)O (stereo unspecified),6.7
7,CNC(C)Cc1ccc2c(c1)OCO2 (stereo unspecified),2.73
8,CC12C=CC(=O)C=C1CCC1C2C(=O)CC2(C)C1CCC2(O)C(=O)CO (stereo unspecified),6.12
9,CN(C)C(=O)Oc1cc(OC(=O)N(C)C)cc(C(O)CNC(C)(C)C)c1 (stereo unspecified),4.59
10,O=C(O)C(c1ccccc1)C1CCCCN1 (stereo unspecified),3.25
11,CNC(C)CC1CCCCC1 (stereo unspecified),4.4
12,CCN(CC)C(=O)c1cccnc1,2.02
13,CC(C)NCC(O)c1ccc(NS(C)(=O)=O)cc1 (stereo unspecified),1.58
14,CC(Cc1ccccc1)N(C)C (stereo unspecified),2.76
15,CC12C=CC(=O)C=C1CCC1C2C(O)CC2(C)C1CCC2(O)C(=O)CO (stereo unspecified),6.15
16,NC(CC(O)COc1cccc2ccccc12)=NO (stereo unspecified),4.76
17,CC12CCC(=O)C=C1C=CC1C2CCC2(C)C1CCC21CCC(=O)O1 (stereo unspecified),7.63
18,CC(Cc1ccccc1)NCCn1cnc2c1c(=O)n(C)c(=O)n2C (stereo unspecified),4.01
19,CC(C)NCC(O)COc1cccc2ccccc12 (stereo unspecified),5.78
20,c1ccc(CN2CCNCC2)cc1,0.67
21,CNC(C)C(O)c1ccccc1 (stereo unspecified),2
